In US20130216634A1, “Herbal Supplement Prepared From Pelargonium Citronellum” (priority 2011, published 2013):
Where two headings read alike, the source gives them in different places.

Legend:
[1] = test system: 25 different bacterial species, 20 different Listeria monocytogenes cultivars, three different fungi; conditions: singly or in combination, in the percentages listed by the ISO; cited from earlier work
[2] = test system: adult human; experiment: LD50, adult human (equivalent / reported); conditions: 143 lb (65 kg) adult human
[3] = test system: mouse; conditions: cited from earlier work

SMILES	Bioactivity (antibacterial, antifungal, anti-oxidant) [1]	LD50 equivalent for adult human ([2]; intraperitoneally injected) [milligrams]	LD50 equivalent for adult human ([2]; intravenously injected) [mg]	LD50 ([3]; intraperitoneal administration) [mg/kg]	LD50 ([3]; intravenous) [mg/kg]
CC(C)=CCC/C(C)=C/CO [geraniol]	very potent				
CC(C)=CCCC(C)CCO (stereo not drawn) [citronellol]	very potent				
CCC(C)CC(C)N (stereo not drawn) [methylhexaneamine, Methylhexaneamine]		978	206	185	39
